Results from the NIST ThermoML archive (doi:10.1021/je050092d).

Test: molar heat capacity at constant pressure
Conditions: 101.33 kPa, Vacuum adiabatic calorimetry

CCCCCCCCCCCCCCCCCC(=O)OCC(COC(=O)CCCCCCCCCCCCCCCCC)OC(=O)CCCCCCCCCCCCCCCCC [glycerol trioctadecanoate]
Conditions	molar heat capacity at constant pressure [J/K/mol]
9.6 K, Crystal	10.7
9.65 K, Crystal	8.023
9.71 K, Crystal	12.48
10.85 K, Crystal	22.29
11.58 K, Crystal	22.29
12.51 K, Crystal	26.74
13.59 K, Crystal	30.31
13.96 K, Crystal	32.98
15.41 K, Crystal	39.23
15.56 K, Crystal	43.68
17.3 K, Crystal	62.4
17.41 K, Crystal	50.81
19.33 K, Crystal	69.54
19.45 K, Crystal	65.97
21.54 K, Crystal	79.34
21.58 K, Crystal	82.02
23.71 K, Crystal	98.06
23.86 K, Crystal	100.74
25.95 K, Crystal	115
26.19 K, Crystal	116.78
28.25 K, Crystal	135.5
28.56 K, Crystal	137.29
30.62 K, Crystal	156.9
30.93 K, Crystal	149.77
30.99 K, Crystal	158.68
33.29 K, Crystal	184.54
35.42 K, Crystal	205.04
37.51 K, Crystal	215.74
39.73 K, Crystal	224.65
41.97 K, Crystal	239.81
44.25 K, Crystal	262.99
46.55 K, Crystal	273.68
48.96 K, Crystal	294.19
51.41 K, Crystal	312.02
53.88 K, Crystal	332.52
56.39 K, Crystal	354.81
58.93 K, Crystal	372.64
61.51 K, Crystal	394.03
64.13 K, Crystal	415.43
66.78 K, Crystal	434.15
69.45 K, Crystal	451.98
72.14 K, Crystal	468.03
74.85 K, Crystal	484.07
77.59 K, Crystal	501.01
80.34 K, Crystal	514.38
83.1 K, Crystal	530.43
85.71 K, Crystal	540.24
85.88 K, Crystal	545.59
88.61 K, Crystal	554.5
88.67 K, Crystal	558.07
91.44 K, Crystal	566.09
91.47 K, Crystal	572.33
94.27 K, Crystal	578.57
97.11 K, Crystal	585.7
99.95 K, Crystal	597.29
102.8 K, Crystal	610.66
105.65 K, Crystal	612.45
108.5 K, Crystal	616.01
111.36 K, Crystal	627.6
114.22 K, Crystal	640.08
117.09 K, Crystal	651.67
119.95 K, Crystal	661.48
122.82 K, Crystal	671.28
125.7 K, Crystal	680.2
128.58 K, Crystal	690.9
131.46 K, Crystal	729.23
134.35 K, Crystal	729.23
137.23 K, Crystal	716.75
140.13 K, Crystal	728.34
143.02 K, Crystal	739.93
145.92 K, Crystal	759.54
148.83 K, Crystal	769.35
151.73 K, Crystal	778.26
154.64 K, Crystal	790.74
157.55 K, Crystal	793.42
160.46 K, Crystal	818.38
163.37 K, Crystal	826.4
166.29 K, Crystal	837.99
169.2 K, Crystal	848.69
172.12 K, Crystal	856.71
175.04 K, Crystal	870.08
177.95 K, Crystal	878.11
178.91 K, Metastable crystal	900.39
180.87 K, Crystal	890.59
181.6 K, Metastable crystal	918.22
183.79 K, Crystal	901.29
184.26 K, Metastable crystal	942.29
186.7 K, Crystal	921.79
186.88 K, Metastable crystal	974.39
189.48 K, Metastable crystal	985.98
189.62 K, Crystal	938.73
192.06 K, Metastable crystal	995.78
192.54 K, Crystal	957.45
194.63 K, Metastable crystal	998.46
195.45 K, Crystal	972.6
197.18 K, Metastable crystal	1005.6
198.37 K, Crystal	976.17
199.71 K, Metastable crystal	1029.7
201.29 K, Crystal	997.57
202.23 K, Metastable crystal	1053.7
204.21 K, Crystal	1008.3
204.74 K, Metastable crystal	1074.2
207.13 K, Crystal	1014.5
207.23 K, Metastable crystal	1089.4
209.71 K, Metastable crystal	1083.1
210.05 K, Crystal	1023.4
212.17 K, Metastable crystal	1091.2
212.96 K, Crystal	1029.7
214.62 K, Metastable crystal	1110.8
215.88 K, Crystal	1037.7
217.06 K, Metastable crystal	1127.7
218.8 K, Crystal	1044.8
219.48 K, Metastable crystal	1147.3
221.72 K, Crystal	1048.4
221.9 K, Metastable crystal	1157.1
224.3 K, Metastable crystal	1170.5
224.64 K, Crystal	1057.3
226.69 K, Metastable crystal	1185.7
227.55 K, Crystal	1067.1
229.06 K, Metastable crystal	1200.8
230.47 K, Crystal	1080.5
231.43 K, Metastable crystal	1217.8
233.39 K, Crystal	1094.7
233.79 K, Metastable crystal	1238.3
236.13 K, Metastable crystal	1256.1
236.3 K, Crystal	1107.2
238.46 K, Metastable crystal	1271.3
239.22 K, Crystal	1121.5
240.79 K, Metastable crystal	1288.2
242.14 K, Crystal	1134
243.1 K, Metastable crystal	1307.8
245.06 K, Crystal	1149.1
245.41 K, Metastable crystal	1327.4
247.71 K, Metastable crystal	1339.9
247.98 K, Crystal	1165.2
250 K, Metastable crystal	1358.6
250.9 K, Crystal	1177.6
252.28 K, Metastable crystal	1376.4
253.82 K, Crystal	1192.8
254.56 K, Metastable crystal	1397.8
256.74 K, Crystal	1208
256.83 K, Metastable crystal	1413
259.09 K, Metastable crystal	1426.4
259.67 K, Crystal	1222.2
261.34 K, Metastable crystal	1444.2
262.6 K, Crystal	1238.3
263.59 K, Metastable crystal	1461.1
265.53 K, Crystal	1254.3
265.83 K, Metastable crystal	1479
268.07 K, Metastable crystal	1495
268.46 K, Crystal	1271.3
270.3 K, Metastable crystal	1515.5
271.39 K, Crystal	1285.5
272.53 K, Metastable crystal	1532.5
274.33 K, Crystal	1301.6
274.75 K, Metastable crystal	1553
276.96 K, Metastable crystal	1577.9
277.27 K, Crystal	1327.4
279.18 K, Metastable crystal	1590.4
280.21 K, Crystal	1339
281.39 K, Metastable crystal	1610
283.16 K, Crystal	1355
283.59 K, Metastable crystal	1629.6
285.8 K, Metastable crystal	1647.5
286.11 K, Crystal	1371.1
288 K, Metastable crystal	1670.6
289.07 K, Crystal	1387.1
290.2 K, Metastable crystal	1689.4
292.03 K, Crystal	1412.1
292.39 K, Metastable crystal	1716.1
294.59 K, Metastable crystal	1733
294.99 K, Crystal	1428.2
296.78 K, Metastable crystal	1763.3
297.32 K, Crystal	1434.4
297.96 K, Crystal	1448.7
298.4 K, Crystal	1436.2
298.97 K, Metastable crystal	1787.4
299.84 K, Crystal	1454.9
300.94 K, Crystal	1466.5
301.16 K, Metastable crystal	1815.9
301.82 K, Crystal	1473.6
303.79 K, Crystal	1492.3
304.05 K, Crystal	1488.8
305.75 K, Crystal	1508.4
306.72 K, Crystal	1514.6
307.7 K, Crystal	1523.5
308.94 K, Crystal	1529.8
309.65 K, Crystal	1536
311.17 K, Crystal	1544
311.6 K, Crystal	1552.1
313.39 K, Crystal	1561
313.55 K, Crystal	1569.9
315.49 K, Crystal	1579.7
315.61 K, Crystal	1576.1
317.43 K, Crystal	1598.4
317.83 K, Crystal	1598.4
319.37 K, Crystal	1627.8
320.05 K, Crystal	1624.3
321.32 K, Crystal	1642.1
322.28 K, Crystal	1645.7
323.27 K, Crystal	1659.9
324.5 K, Crystal	1666.2
325.23 K, Crystal	1682.2
326.72 K, Crystal	1692.9
327.2 K, Crystal	1700.1
328.95 K, Crystal	1713.4
329.17 K, Crystal	1721.4
351.37 K, Liquid	1971.1
353.63 K, Liquid	1975.5
355.89 K, Liquid	1981.8
358.16 K, Liquid	1986.2
360.45 K, Liquid	1992.5
362.74 K, Liquid	1997.8
365.05 K, Liquid	2004.9
367.37 K, Liquid	2007.6
369.71 K, Liquid	2015.6
